Measurements taken from patent publication US6713513B2, “Method for treating cartilage related diseases” (Juneng Industry Co., Ltd., priority 2001, dated 2004).
Marks after values point to notes of the source that are not given here.

How the values were obtained:
[1] = system: mRNA of collagen I of osteocyte; test: Hybridization in situ of mRNA of collagen I, osteocytes, femur of rats with retinoic acid osteoporosis; type: in vivo, rat; details: for Positive Case Nos. of osteocyte (mRNA of collagen I) / Positive percentage of mRNA of collagen I, osteocyte: 100 mg/kg body weight, 10 weeks
Method: (§1) The rats were administered drugs for 10 weeks, respectively.
(§2) Collagen I was stained by hybridization in situ, following the directions of the kit. After specific hybridization, mRNA of collagen I was developed by 3,3′-diaminobenzidine (DAB). The slide was routinely dehydrated and mounted.
(§3) X2 test was conducted to the experimental data.

[2] = system: bone tissue of the rat with osteoporosis caused by retinoic acid; test: Histochemical staining (M-S, T-B, HE, V-K silver) of bone and cartilage; details: for Articular cartilage / cartilage matrix: blank-control group as normal reference; for Bone trabeculae in cancellous bone (figure legends): FIGS. 7, 13, 14; for Formation of new bone: compared with blank-control group
Method: (§4) Grouping of animals: 66 male 3-month-aged rats were used in the present test. Eight rats were randomly selected as blank-control group, which were fed with normal diet and tap water. The other 58 rats were randomly divided into 9 groups, and were continuously administered retinoic acid with a dosage of 70 mg/kg body weight and volume of 10 ml/kg body weight, and were fed with low calcium diet meanwhile. After two weeks of administration of retinoic acid, stop the drug and thus establishing osteoporosis models.
(4) Calcium citrate group: 6 rats, administered calcium citrate with a dosage of 100 mg/kg body weight
(5) Sodium hydroxyethyl phosphate group: 6 rats, administered sodium hydroxyethyl phosphate with a dosage of 100 mg/kg body weight
(§5) The rats were administered drugs for 10 weeks, respectively. During the whole test period, each group was fed with low calcium diet and de-ionized water except that the blank-control group was fed with normal diet. Then the lower one third of right femur of each rat was extracted, and preserved at −20° C.
(2) Histochemical Staining
a Masson-Goldner Lrichrone staining (M-S staining)
b Toluidine Blue staining (T-B staining)
c Hematoxylin-eosin (HE) staining
d Von Kossa silver staining of partial slice (V-K silver staining).

[3] = system: collagen I of chondrocyte; test: Immunohistochemical staining of collagen I (ABC method), chondrocytes, rats with retinoic acid osteoporosis; details: for Positive Case Nos. of chondrocyte (collagen I immunohistochemical staining) / Positive percentage of collagen I by immunohistochemical staining, chondrocyte: 100 mg/kg body weight, 10 weeks
Method: as §4, §5
Collagen I was immunohistochemically stained by ABC method, following the directions of kit. Collagen I was developed by DAB. The slide was routinely dehydrated and mounted. (The detection kit was provided by Wuhan Doctor Microbiologic Engineering Co. Ltd., China. Cat. No: BA0325)
The results were observed by microscopy, which was expressed by positive percentage. X2 test was conducted to the experimental data.

[4] = system: mRNA of collagen I of chondrocyte; test: Hybridization in situ of mRNA of collagen I, chondrocytes, femur of rats with retinoic acid osteoporosis; type: in vivo, rat
Method: as §1, §2, §3

[5] = 100 mg/kg body weight, 10 weeks

Row | Compound | Positive Case Nos. of osteocyte (mRNA of collagen I) [1] | Positive percentage of mRNA of collagen I, osteocyte [1] [%] | Articular cartilage / cartilage matrix ([2]; 10 weeks) | Bone trabeculae in cancellous bone (figure legends) [2] | Staining of glycogen in cancellous bone (figure legends) ([2]; histochemical staining of glycogen, FIGS. 8, 13, 14) | Positive Case Nos. of chondrocyte (collagen I immunohistochemical staining) [3] | Positive percentage of collagen I by immunohistochemical staining, chondrocyte [3] | Positive percentage of mRNA of collagen I compared with Model-control group ([1]; rat, in vivo) | Expression percentage of mRNA of collagen I compared with model-control group ([4]; rat, in vivo) | Nourishing blood vessels of the bone ([2]; 10 weeks) | Formation of new bone ([2]; 10 weeks) | Osteocollagenous fibers by silver staining (figure legends) ([2]; silver staining, FIGS. 9, 10, 11, 20) | Positive percentages of collagen I by immunohistochemistry, comparison of groups ([3]; rat, in vivo) | Positive Case Nos. of chondrocyte (mRNA of collagen I) [4, 5] | Positive percentage of mRNA of collagen I, chondrocyte [4, 5]
1 | O=P([O-])([O-])OCCO.[Na+].[Na+] [Sodium hydroxyethyl phosphate, sodium hydroxyethyl phosphate] | 2 | 33.3 | developed retrograde affection | excessive and disorganized | less glycogen | 2 | 33.3% | – | – | – | – | – | – | – | –
2 | calcium L-threonate | – | – | Cartilage collagen fibers and matrix thickened | thick, dense and ordered | – | – | – | significantly higher than Model-control group | significantly higher than that of model-control group | increased | increased | parallel, regular and abundant | relatively higher | – | –
3 | O=C([O-])CC(O)(CC(=O)[O-])C(=O)[O-].O=C([O-])CC(O)(CC(=O)[O-])C(=O)[O-].[Ca+2].[Ca+2].[Ca+2] [Calcium citrate, calcium citrate] | 2 | 33.3 | – | – | – | 0 (0%)** | 0 (0%)** | – | – | – | less than those of the blank-control group | – | – | 0 (0%) | 0 (0%)
